Data published in article PMC6508865, “Dynamics of thymol dietary supplementation in quail (Coturnix japonica): Linking bioavailability, effects on egg yolk total fatty acids and performance traits” (PLoS ONE, 2019).

How the values were obtained:
[1] = set-up: method as in ref 14 = [14]; 14 Botsoglou N , Yannakopoulos AL , Fletouris DJ , Tserveni-Goussi AS , Fortomaris PD . Effect of dietary thyme on oxidative stability of egg yolk . J Agric Food Chem . 1997; 45 ( 10 ): 3711 – 6 .; details: cited from earlier work
[2] = test system: female Japanese quail (Coturnix japonica); assay: Liver histological analysis (histopathological index); format: in vivo
From the text: A total of 50 eighty-five days-old female quail of homogeneous body weights (251 ± 1 g; Mean ± SE) and in their egg-laying peak were selected from an initial group of 96 female individuals. All birds continued receiving a basal diet between 85 and 100 days of age and all variables (see below for details) were registered along this period (Pre-supplementation period, Fig 1). From 100 to 128 days of age (S period, Fig 1), females were randomly assigned to either a chronic dietary supplementation with one of 3 THY doses (THY2, THY4 and THY6; 10 females each) or to one of 2 control groups (basal diet, BASAL, and basal diet with vehicle solution, VEHICLE; 10 females each). Once finished the S period, half of the quail were slaughtered for histological analysis (n = 25; Slaughter 1, Fig 1) and the other half were subjected to a pS period of 21 days, during which all females received the BASAL diet (pS, Fig 1). After this period, the remaining 25 animals were also slaughtered for histological analysis (Slaughter 2, Fig 1). In this way, we assessed whether THY induced changes in variables indicative of tissue damage and if so, whether the potential damages could reverse after 3 weeks of supplement withdrawal.
At each slaughter point birds were euthanized by decapitation and livers were removed and stored in buffered formalin at 10%, processed routinely and stained with hematoxylin and eosin (H&E) and periodic acid-Schiff (PAS). Each slide was examined blinded, with a light microscope (Olympus X-785) and photographed with a digital camera (Moticam Camera 2300, 3 Megapixels). To evaluate histological alterations of liver, tissue was divided into 8 random equal areas to ensure there was no overlapping of the studied areas. For each area, the extension and number of each alteration were recorded with a microscope at 40X magnitude. Histopathological index of liver (HIliv) were estimated using a semi-quantitative protocol following, modified by our colleagues. Briefly, alterations were classified into four major reaction patterns each one of those including alterations that concern to different functional units of the liver or to the whole organ: RP1, circulatory disturbances (dilatation of sinusoids, vascular congestion, hemorrhage); RP2, regressive changes (steatosis or fatty degeneration, hydropic degeneration, nuclear alteration, fibrosis, necrosis); RP3, progressive changes (oval cells, cell hypertrophy and hyperplasia); and RP4, liver inflammation (leukocyte infiltration). Then, for each RP, an index was calculated based on two factors: the pathological importance of the lesions (importance factor, W) (range 1–3) and the extension of pathological change (score value, a) from 0 (unchanged) to 8 (extreme occurrence). Finally, a total liver histopathological index (HIliv) was calculated by adding the single RP liver indices of each individual quail. A greater value of (HIliv) reflects the most severely affected individual.

[3] = test system: female Japanese quail (Coturnix japonica); assay: Total fatty acid analysis in egg yolks (GC/MS of FAME); format: in vivo; details: for egg yolk SFA reduction disappeared after post-supplementation / persistence of reduced egg yolk 16:0 concentration after post-supplementation / persistence of reduced egg yolk 18:0 concentration after post-supplementation: 21 days of pS
From the text: All birds continued receiving a basal diet between 85 and 100 days of age and all variables (see below for details) were registered along this period (Pre-supplementation period, Fig 1). […] Once finished the S period, half of the quail were slaughtered for histological analysis (n = 25; Slaughter 1, Fig 1) and the other half were subjected to a pS period of 21 days, during which all females received the BASAL diet (pS, Fig 1). After this period, the remaining 25 animals were also slaughtered for histological analysis (Slaughter 2, Fig 1). In this way, we assessed whether THY induced changes in variables indicative of tissue damage and if so, whether the potential damages could reverse after 3 weeks of supplement withdrawal.
To assess changes in egg yolk total FA composition, egg physical characteristics, laying rate, body weight, feed intake and general welfare, during the S and pS periods, five sampling points were defined (Sample points, Fig 1): one initial sample point (at 0 days of S); three sample points during the S period (at 7, 14 and 28 days of S); and one sample point at the end of the pS period (21 days of pS). It should be noted that for determinations of THY concentration, eggs and quail droppings were collected offset from the other variables measured by 2 days, thus were collected on days 2, 9, 16, and 26 days of S, and 17 days of pS, respectively.
Eggs were obtained at each sample point (Sample points, Fig 1) and stored at -20°C until yolk total fatty acids analysis. Lipids were extracted from the yolk following homogenization in a suitable excess of chloroform/methanol (2:1 v/v). The solvents were removed under reduced pressure in a rotary evaporator. Lipids were subjected to alkaline saponification (1 mol/L potassium hydroxide in methanol), and the unsaponifiable matter was extracted with n-hexane. The fatty acid methyl esters (FAMEs) were prepared by transmethylation through treatment with 1 mol/L sulfuric acid in methanol and analyzed by gas chromatography/mass spectrometry (GC/MS). All chemicals used in this study were reagent-grade commercial products. FAMEs were analyzed by gas chromatography on a 60 m fused capillary column with an internal diameter of 0.25 mm (PerkinElmer Elite-WAX Polyethylene Glycol). The analysis was performed on a PerkinElmer Clarus® 600 GC/MS system equipped with a flame ionization detector (Waltham, MA, USA). […] The injection port temperature was 250°C and the detector temperature was 250°C. […] Peak identification was carried out by comparing the known retention times for the fatty acids reported with the temperature program and the chromatographic system used.

[4] = overall mean over control and 2, 4, 6.25 g thymol/kg feed diets and two slaughter batches
[5] = overall mean over control and 2, 4, 6.25 g thymol/kg feed diets and two slaughter batches, no effect of diet
[6] = THY6, 6.25 g of thymol/kg of feed
[7] = all THY supplemented diets (2, 4, 6.25 g/kg of feed)

Cc1ccc(C(C)C)c(O)c1 [THY, 2 isopropyl-5-methylphenol]
concentration of THY needed to be added to a control yolk for antioxidant activity equivalent to a yolk from a thyme treated hen [1]: 278 ug of THY/g of yolk
effect on histopathological features of the liver ([2]; 2, 4, 6.25 g of THY/kg feed, 28 days S and 21 days pS): did not affect
HILiv.Rp3 (liver histopathological index, progressive changes) [2, 4]: 0,80
HILiv.Rp4 (liver histopathological index, inflammation) [2, 4]: 0,27
HILiv (total liver histopathological index) [2, 5]: 22,58
HILiv.Rp2 (liver histopathological index, regressive changes) [2, 5]: 16,80
effect on egg yolk MUFA ([3]; 2, 4, 6.25 g of thymol/kg of feed, diet, time of sampling or interaction): No differences
supplementation time by which reduced egg yolk 16:0 (palmitic acid) concentration was achieved ([3]; THY2, 2 g of thymol/kg of feed): 28 days of S
supplementation time by which reduced egg yolk 18:0 (stearic acid) concentration was achieved ([3]; THY2, 2 g of thymol/kg of feed): 28 days of S
supplementation time required for increasing egg yolk 22:5 (docosapentaenoic acid) ([3]; THY2, 2 g of thymol/kg of feed): 14 days of S
supplementation time required to reduce egg yolk SFA concentration ([3]; THY2, 2 g of thymol/kg of feed): 28 days of S
egg yolk SFA reduction disappeared after post-supplementation ([3]; THY2, 2 g of thymol/kg of feed): disappeared
persistence of reduced egg yolk 16:0 concentration after post-supplementation ([3]; THY2, 2 g of thymol/kg of feed): returned to initial levels
persistence of reduced egg yolk 18:0 concentration after post-supplementation ([3]; THY2, 2 g of thymol/kg of feed): continued
effect on egg yolk PUFA concentration ([3]; THY2, 2 g of thymol/kg of feed, S period): failed to increase PUFA
effect on egg yolk 16:1 (palmitoleic acid) ([3]; THY2, 2 g of thymol/kg of feed, by 7 and 14 days of S): transient decrease
day of supplementation by which egg yolk polyunsaturated fatty acids increased ([3]; THY4, 4 g of thymol/kg of feed): 14 day of supplementation
supplementation time by which reduced egg yolk 16:0 (palmitic acid) concentration was achieved ([3]; THY4, 4 g of thymol/kg of feed): 14 days of S
supplementation time by which reduced egg yolk 18:0 (stearic acid) concentration was achieved ([3]; THY4, 4 g of thymol/kg of feed): 14 days of S
supplementation time from which egg yolk 18:3 (linolenic acid) concentration was higher ([3]; THY4, 4 g of thymol/kg of feed): 14 days of S
supplementation time from which egg yolk 20:4 (arachidonic acid) concentration was higher ([3]; THY4, 4 g of thymol/kg of feed): 14 days of S
supplementation time required for increasing egg yolk 22:5 (docosapentaenoic acid) ([3]; THY4, 4 g of thymol/kg of feed): 14 days of S
supplementation time required to reduce egg yolk SFA concentration ([3]; THY4, 4 g of thymol/kg of feed): 14 days of S
egg yolk SFA reduction disappeared after post-supplementation ([3]; THY4, 4 g of thymol/kg of feed): not
persistence of reduced egg yolk 16:0 concentration after post-supplementation ([3]; THY4, 4 g of thymol/kg of feed): continued
persistence of reduced egg yolk 18:0 concentration after post-supplementation ([3]; THY4, 4 g of thymol/kg of feed): continued
effect on egg yolk PUFA concentration ([3]; THY4, 4 g of thymol/kg of feed, S period and 21 days of pS): induced PUFA increments that remained enhanced even at 21 days of pS
effect on egg yolk 16:1 (palmitoleic acid) ([3]; THY4, 4 g of thymol/kg of feed, at 21 days of pS): transient decrease
day of supplementation by which egg yolk polyunsaturated fatty acids increased [3, 6]: 14 day of supplementation
supplementation time by which reduced egg yolk 16:0 (palmitic acid) concentration was achieved [3, 6]: 14 days of S
supplementation time by which reduced egg yolk 18:0 (stearic acid) concentration was achieved [3, 6]: 14 days of S
supplementation time from which egg yolk 18:3 (linolenic acid) concentration was higher [3, 6]: 14 days of S
supplementation time from which egg yolk 20:4 (arachidonic acid) concentration was higher [3, 6]: 14 days of S
supplementation time required for increasing egg yolk 22:5 (docosapentaenoic acid) [3, 6]: 7 days of S
egg yolk SFA reduction disappeared after post-supplementation [3, 6]: not
persistence of reduced egg yolk 16:0 concentration after post-supplementation [3, 6]: continued
persistence of reduced egg yolk 18:0 concentration after post-supplementation [3, 6]: returned to initial levels
effect on egg yolk PUFA concentration ([3]; THY6, 6.25 g of thymol/kg of feed, S period and 21 days of pS): induced PUFA increments that remained enhanced even at 21 days of pS
effect on egg yolk 16:1 (palmitoleic acid) ([3]; THY6, 6.25 g of thymol/kg of feed, at 21 days of pS): transient decrease
supplementation time required to reduce egg yolk SFA concentration ([3]; THY6, 6.25 g of thymol/kg of feed, reduction of even greater magnitude): 14 days of S
supplementation time from which egg yolk 20:5 (eicosapentaenoic acid) was increased [3, 7]: 7 days of S
supplementation time from which egg yolk 22:6 (docosahexaenoic acid) was increased [3, 7]: 7 days of S
